What was measured:
[1] = biological target: 5-hydroxytryptamine receptor 3A (Homo sapiens) (UniProt P46098); conditions: Compound concentration 10.0 uM
[2] = biological target: D(2) dopamine receptor (Homo sapiens) (UniProt P14416); conditions: Compound concentration 10.0 uM
[3] = biological target: T1, Sodium-dependent dopamine transporter (Homo sapiens, UniProt Q01959); conditions: Compound concentration 10.0 uM
[4] = biological target: 5-hydroxytryptamine receptor 6 (Homo sapiens) (UniProt P50406); conditions: Compound concentration 10.0 uM
5-hydroxytryptamine receptor 6 (Homo sapiens), sequence (P50406 whole entry): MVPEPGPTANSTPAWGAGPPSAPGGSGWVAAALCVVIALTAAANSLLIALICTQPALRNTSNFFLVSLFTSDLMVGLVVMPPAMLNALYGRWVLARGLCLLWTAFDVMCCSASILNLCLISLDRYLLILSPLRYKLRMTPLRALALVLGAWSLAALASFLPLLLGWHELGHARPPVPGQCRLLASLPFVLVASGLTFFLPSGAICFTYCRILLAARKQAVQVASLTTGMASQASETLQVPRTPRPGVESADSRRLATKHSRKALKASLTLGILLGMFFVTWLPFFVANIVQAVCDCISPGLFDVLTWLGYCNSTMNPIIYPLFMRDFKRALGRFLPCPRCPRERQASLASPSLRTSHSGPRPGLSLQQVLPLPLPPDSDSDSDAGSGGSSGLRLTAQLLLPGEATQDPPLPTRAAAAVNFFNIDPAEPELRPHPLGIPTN

[5] = biological target: Alpha-1B adrenergic receptor (Homo sapiens) (UniProt P35368); conditions: Compound concentration 10.0 uM
[6] = biological target: Alpha-1A adrenergic receptor (Homo sapiens) (UniProt P35348); conditions: Compound concentration 10.0 uM
[7] = biological target: Histamine H1 receptor (Homo sapiens) (UniProt P35367); conditions: Compound concentration 10.0 uM
Spermine oxidase = Spermine oxidase (Homo sapiens, UniProt Q9NWM0); test: HyPerBlu SMOX enzymatic assay
D(4) dopamine receptor = D(4) dopamine receptor (Homo sapiens, UniProt P21917); test: GPCRScan assay: inhibition of D4; parameters: radioligand conc. used [nm] 0.6 – 1.7, parental cells Stable HEK
D(4) dopamine receptor, sequence (P21917 whole entry): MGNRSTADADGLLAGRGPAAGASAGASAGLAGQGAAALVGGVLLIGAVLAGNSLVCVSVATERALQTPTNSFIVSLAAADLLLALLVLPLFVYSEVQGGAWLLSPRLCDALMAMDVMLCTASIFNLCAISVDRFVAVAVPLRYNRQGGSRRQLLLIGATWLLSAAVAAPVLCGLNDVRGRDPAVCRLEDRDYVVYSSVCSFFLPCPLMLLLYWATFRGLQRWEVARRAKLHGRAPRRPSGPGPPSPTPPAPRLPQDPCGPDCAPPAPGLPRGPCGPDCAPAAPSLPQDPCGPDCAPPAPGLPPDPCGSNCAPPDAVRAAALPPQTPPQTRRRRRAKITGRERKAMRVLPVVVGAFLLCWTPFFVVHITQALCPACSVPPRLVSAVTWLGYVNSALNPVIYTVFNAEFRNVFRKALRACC

[8] = biological target: Mu-type opioid receptor (Homo sapiens) (UniProt P35372); conditions: Compound concentration 10.0 uM
[9] = biological target: Beta-3 adrenergic receptor (Homo sapiens) (UniProt P13945); conditions: Compound concentration 10.0 uM
[10] = GPCRScan assay: inhibition of GABA/PBR; parameters: species or system Rattus norvegicus; radioligand conc. used [nm] 0.3 – 2.0, parental cells brain tissue
[11] = biological target: 5-hydroxytryptamine receptor 7 (Homo sapiens) (UniProt P34969); conditions: Compound concentration 10.0 uM
[12] = biological target: Alpha-1D adrenergic receptor (Homo sapiens) (UniProt P25100); conditions: Compound concentration 10.0 uM
[13] = biological target: D(4) dopamine receptor (Homo sapiens) (UniProt P21917); conditions: Compound concentration 10.0 uM
D(4) dopamine receptor (Homo sapiens), sequence (P21917 whole entry): as above

[14] = biological target: 5-hydroxytryptamine receptor 2B (Homo sapiens, UniProt P41595); conditions: Compound concentration 10.0 uM
[15] = biological target: Histamine H3 receptor (Homo sapiens) (UniProt Q9Y5N1); conditions: Compound concentration 10.0 uM
Histamine H3 receptor (Homo sapiens), sequence (Q9Y5N1 whole entry): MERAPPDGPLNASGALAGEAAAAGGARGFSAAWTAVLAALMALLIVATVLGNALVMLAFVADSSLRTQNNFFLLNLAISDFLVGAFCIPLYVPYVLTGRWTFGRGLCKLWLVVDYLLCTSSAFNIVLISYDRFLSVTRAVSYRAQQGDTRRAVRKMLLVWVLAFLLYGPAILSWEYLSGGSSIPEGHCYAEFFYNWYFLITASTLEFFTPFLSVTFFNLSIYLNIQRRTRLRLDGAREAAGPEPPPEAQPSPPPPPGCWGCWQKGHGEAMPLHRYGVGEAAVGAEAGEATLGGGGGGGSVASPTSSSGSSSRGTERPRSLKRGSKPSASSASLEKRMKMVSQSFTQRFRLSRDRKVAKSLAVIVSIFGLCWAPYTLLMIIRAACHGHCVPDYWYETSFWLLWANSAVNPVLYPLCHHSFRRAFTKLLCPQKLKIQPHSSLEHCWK

[16] = biological target: Beta-1 adrenergic receptor (Homo sapiens) (UniProt P08588); conditions: Compound concentration 10.0 uM
[17] = biological target: T2, Muscarinic acetylcholine receptor M4 (Homo sapiens) (UniProt P08173); conditions: Compound concentration 10.0 uM
T2 sequence (whole entry): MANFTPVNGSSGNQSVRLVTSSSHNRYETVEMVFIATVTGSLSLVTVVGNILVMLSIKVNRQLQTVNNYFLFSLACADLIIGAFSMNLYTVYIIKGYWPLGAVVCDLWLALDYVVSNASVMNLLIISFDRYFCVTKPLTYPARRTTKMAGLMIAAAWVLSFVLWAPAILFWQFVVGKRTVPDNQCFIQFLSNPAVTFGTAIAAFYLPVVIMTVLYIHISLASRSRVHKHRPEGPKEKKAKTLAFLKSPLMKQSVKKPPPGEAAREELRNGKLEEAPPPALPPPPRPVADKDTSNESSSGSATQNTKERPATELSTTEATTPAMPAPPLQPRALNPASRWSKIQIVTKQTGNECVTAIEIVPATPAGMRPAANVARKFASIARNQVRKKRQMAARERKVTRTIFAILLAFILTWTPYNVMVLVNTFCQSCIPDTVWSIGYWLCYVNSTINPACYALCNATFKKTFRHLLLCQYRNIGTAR

Rattus norvegicus = species on record: Rattus norvegicus; conditions: Compound concentration 10.0 uM
[18] = biological target: 5-hydroxytryptamine receptor 1B (Homo sapiens, UniProt P28222); conditions: Compound concentration 10.0 uM
5-hydroxytryptamine receptor 1B, sequence (P28222 whole entry): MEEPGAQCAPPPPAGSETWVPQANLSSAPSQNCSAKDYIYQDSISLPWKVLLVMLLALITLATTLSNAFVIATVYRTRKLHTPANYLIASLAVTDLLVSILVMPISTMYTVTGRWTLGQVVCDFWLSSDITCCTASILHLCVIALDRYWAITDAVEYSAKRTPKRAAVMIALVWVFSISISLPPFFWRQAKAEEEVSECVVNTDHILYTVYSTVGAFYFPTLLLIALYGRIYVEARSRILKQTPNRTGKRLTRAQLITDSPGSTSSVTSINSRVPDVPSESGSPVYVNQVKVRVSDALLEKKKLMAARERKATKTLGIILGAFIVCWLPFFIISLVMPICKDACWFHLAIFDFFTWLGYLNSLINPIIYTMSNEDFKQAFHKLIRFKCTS

[19] = biological target: Muscarinic acetylcholine receptor M1 (Homo sapiens) (UniProt P11229); conditions: Compound concentration 10.0 uM
[20] = biological target: Histamine H2 receptor (Homo sapiens) (UniProt P25021); conditions: Compound concentration 10.0 uM
Histamine H2 receptor (Homo sapiens), sequence (P25021 whole entry): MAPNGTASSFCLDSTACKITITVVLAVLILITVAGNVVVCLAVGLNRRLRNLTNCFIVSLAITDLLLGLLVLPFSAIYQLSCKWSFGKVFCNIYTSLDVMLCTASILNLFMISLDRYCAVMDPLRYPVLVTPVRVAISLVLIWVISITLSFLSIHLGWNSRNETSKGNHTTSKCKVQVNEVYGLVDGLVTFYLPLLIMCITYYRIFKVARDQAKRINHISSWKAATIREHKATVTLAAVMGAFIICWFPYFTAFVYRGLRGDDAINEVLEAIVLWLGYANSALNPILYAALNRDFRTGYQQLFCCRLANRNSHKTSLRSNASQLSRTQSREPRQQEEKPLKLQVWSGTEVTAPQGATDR

[21] = biological target: 5-hydroxytryptamine receptor 1E (Homo sapiens) (UniProt P28566); conditions: Compound concentration 10.0 uM
[22] = biological target: Muscarinic acetylcholine receptor M5 (Homo sapiens) (UniProt P08912); conditions: Compound concentration 10.0 uM
[23] = biological target: Delta-type opioid receptor (Homo sapiens) (UniProt P41143); conditions: Compound concentration 10.0 uM
[24] = biological target: Muscarinic acetylcholine receptor M3 (Homo sapiens) (UniProt P20309); conditions: Compound concentration 10.0 uM
[25] = biological target: Sigma non-opioid intracellular receptor 1 (Homo sapiens) (UniProt Q99720); conditions: Compound concentration 10.0 uM
[26] = biological target: Alpha-2C adrenergic receptor (Homo sapiens) (UniProt P18825); conditions: Compound concentration 10.0 uM
[27] = biological target: Muscarinic acetylcholine receptor M2 (Homo sapiens) (UniProt P08172); conditions: Compound concentration 10.0 uM
Muscarinic acetylcholine receptor M2 (Homo sapiens), sequence (P08172 whole entry): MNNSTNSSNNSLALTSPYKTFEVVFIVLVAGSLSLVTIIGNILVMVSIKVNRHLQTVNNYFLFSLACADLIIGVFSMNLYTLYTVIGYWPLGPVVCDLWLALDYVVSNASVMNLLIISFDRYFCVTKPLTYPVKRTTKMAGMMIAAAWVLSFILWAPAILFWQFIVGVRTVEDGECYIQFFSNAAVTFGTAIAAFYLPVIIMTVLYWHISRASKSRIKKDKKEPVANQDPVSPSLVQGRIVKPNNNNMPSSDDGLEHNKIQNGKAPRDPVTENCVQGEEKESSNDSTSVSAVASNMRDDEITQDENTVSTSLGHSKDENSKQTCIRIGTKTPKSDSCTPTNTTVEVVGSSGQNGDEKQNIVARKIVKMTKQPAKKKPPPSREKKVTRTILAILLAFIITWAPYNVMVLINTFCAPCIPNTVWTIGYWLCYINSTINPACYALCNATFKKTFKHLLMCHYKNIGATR

[28] = biological target: Beta-2 adrenergic receptor (Homo sapiens) (UniProt P07550); conditions: Compound concentration 10.0 uM
Beta-2 adrenergic receptor (Homo sapiens), sequence (P07550 whole entry, looked up): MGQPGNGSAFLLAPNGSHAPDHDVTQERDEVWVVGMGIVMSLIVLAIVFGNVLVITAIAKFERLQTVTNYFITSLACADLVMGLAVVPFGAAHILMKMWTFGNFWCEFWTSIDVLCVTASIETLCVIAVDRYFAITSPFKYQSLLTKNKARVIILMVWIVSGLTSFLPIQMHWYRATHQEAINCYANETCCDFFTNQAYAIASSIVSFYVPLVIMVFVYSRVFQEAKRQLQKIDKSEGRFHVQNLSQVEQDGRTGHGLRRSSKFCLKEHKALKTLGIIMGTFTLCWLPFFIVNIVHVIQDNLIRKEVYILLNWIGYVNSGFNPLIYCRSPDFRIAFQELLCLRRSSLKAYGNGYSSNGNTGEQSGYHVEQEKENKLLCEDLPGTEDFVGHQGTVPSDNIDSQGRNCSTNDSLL

[29] = biological target: T3, Kappa-type opioid receptor (Homo sapiens, UniProt P41145); conditions: Compound concentration 10.0 uM
T3 sequence (P41145 whole entry): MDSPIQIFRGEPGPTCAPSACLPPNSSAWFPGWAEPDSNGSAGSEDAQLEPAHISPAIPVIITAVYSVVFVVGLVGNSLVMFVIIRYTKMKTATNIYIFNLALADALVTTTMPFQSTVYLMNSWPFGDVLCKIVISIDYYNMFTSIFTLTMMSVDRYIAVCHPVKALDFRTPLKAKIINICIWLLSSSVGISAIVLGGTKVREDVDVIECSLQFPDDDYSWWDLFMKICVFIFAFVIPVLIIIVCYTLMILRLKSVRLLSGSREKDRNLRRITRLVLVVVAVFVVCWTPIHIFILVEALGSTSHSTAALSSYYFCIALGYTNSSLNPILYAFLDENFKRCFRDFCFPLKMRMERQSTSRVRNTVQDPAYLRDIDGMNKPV

[30] = biological target: Alpha-2B adrenergic receptor (Homo sapiens) (UniProt P18089); conditions: Compound concentration 10.0 uM
[31] = biological target: 5-hydroxytryptamine receptor 2C (Homo sapiens) (UniProt P28335); conditions: Compound concentration 10.0 uM
[32] = biological target: Muscarinic acetylcholine receptor M4 (Homo sapiens, UniProt P08173); test: GPCRScan assay: inhibition of M4; parameters: radioligand conc. used [nm] 0.3 – 1.0, parental cells stable CHO
[33] = biological target: 5-hydroxytryptamine receptor 2A (Homo sapiens) (UniProt P28223); conditions: Compound concentration 10.0 uM
[34] = biological target: Histamine H4 receptor (Homo sapiens) (UniProt Q9H3N8); conditions: Compound concentration 10.0 uM
[35] = biological target: Sigma intracellular receptor 2 (Homo sapiens, UniProt Q5BJF2); conditions: Compound concentration 10.0 uM
[36] = biological target: Sodium-dependent noradrenaline transporter (Homo sapiens) (UniProt P23975); conditions: Compound concentration 10.0 uM
[37] = biological target: GABA-A receptor; anion channel (Rattus norvegicus) (UniProt O09028+P15431+P18506+P18508+P19969+P20236+P23574+P23576+P28471+P28473+P30191+P62813+P63079+P63138+Q91ZM7+Q9ES14); conditions: Compound concentration 10.0 uM
[38] = biological target: Alpha-2A adrenergic receptor (Homo sapiens) (UniProt P08913); conditions: Compound concentration 10.0 uM
[39] = biological target: T1, Sodium-dependent dopamine transporter; test: GPCRScan assay: inhibition of DAT; parameters: radioligand conc. used [nm] 3.6 – 16.0, parental cells stable HEK
[40] = biological target: 5-hydroxytryptamine receptor 1A (Homo sapiens) (UniProt P08908); conditions: Compound concentration 10.0 uM
[41] = biological target: Peroxisomal N(1)-acetyl-spermine/spermidine oxidase (Homo sapiens, UniProt Q6QHF9); test: HyPerBlu POAX enzymatic assay
D(3) dopamine receptor [42] = biological target: T4, D(3) dopamine receptor (Homo sapiens, UniProt P35462); conditions: Compound concentration 10.0 uM
T4 sequence (P35462 whole entry): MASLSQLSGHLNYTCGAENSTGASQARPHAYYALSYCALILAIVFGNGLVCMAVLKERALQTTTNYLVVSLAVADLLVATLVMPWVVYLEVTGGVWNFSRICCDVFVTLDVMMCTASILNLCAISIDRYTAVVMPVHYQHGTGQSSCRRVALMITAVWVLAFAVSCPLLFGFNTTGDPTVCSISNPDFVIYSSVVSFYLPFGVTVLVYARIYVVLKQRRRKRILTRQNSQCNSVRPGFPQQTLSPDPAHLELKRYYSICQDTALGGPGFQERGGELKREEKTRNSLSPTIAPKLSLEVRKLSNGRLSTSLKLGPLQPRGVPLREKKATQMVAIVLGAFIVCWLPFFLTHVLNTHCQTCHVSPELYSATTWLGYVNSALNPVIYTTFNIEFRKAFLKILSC

[43] = biological target: D(1B) dopamine receptor (Homo sapiens) (UniProt P21918); conditions: Compound concentration 10.0 uM
[44] = biological target: Alpha-1B adrenergic receptor (Homo sapiens, UniProt P35368); test: GPCRScan assay: inhibition of Alpha1B; parameters: radioligand conc. used [nm] 0.3 – 1.0, parental cells stable HEK
D(3) dopamine receptor [45] = biological target: T4, D(3) dopamine receptor; test: GPCRScan assay: inhibition of D3; parameters: radioligand conc. used [nm] 0.5 – 1.8, parental cells HEKT
[46] = biological target: T3, Kappa-type opioid receptor; test: GPCRScan assay: inhibition of KOR; parameters: radioligand conc. used [nm] 0.6 – 1.2, parental cells stable HEK
[47] = biological target: 5-hydroxytryptamine receptor 1D (Homo sapiens, UniProt P28221); conditions: Compound concentration 10.0 uM
[48] = biological target: Sodium-dependent serotonin transporter (Homo sapiens) (UniProt P31645); conditions: Compound concentration 10.0 uM
[49] = biological target: 5-hydroxytryptamine receptor 5A (Homo sapiens) (UniProt P47898); conditions: Compound concentration 10.0 uM
[50] = biological target: D(1A) dopamine receptor (Homo sapiens) (UniProt P21728); conditions: Compound concentration 10.0 uM

T1 sequence (Q01959 whole entry): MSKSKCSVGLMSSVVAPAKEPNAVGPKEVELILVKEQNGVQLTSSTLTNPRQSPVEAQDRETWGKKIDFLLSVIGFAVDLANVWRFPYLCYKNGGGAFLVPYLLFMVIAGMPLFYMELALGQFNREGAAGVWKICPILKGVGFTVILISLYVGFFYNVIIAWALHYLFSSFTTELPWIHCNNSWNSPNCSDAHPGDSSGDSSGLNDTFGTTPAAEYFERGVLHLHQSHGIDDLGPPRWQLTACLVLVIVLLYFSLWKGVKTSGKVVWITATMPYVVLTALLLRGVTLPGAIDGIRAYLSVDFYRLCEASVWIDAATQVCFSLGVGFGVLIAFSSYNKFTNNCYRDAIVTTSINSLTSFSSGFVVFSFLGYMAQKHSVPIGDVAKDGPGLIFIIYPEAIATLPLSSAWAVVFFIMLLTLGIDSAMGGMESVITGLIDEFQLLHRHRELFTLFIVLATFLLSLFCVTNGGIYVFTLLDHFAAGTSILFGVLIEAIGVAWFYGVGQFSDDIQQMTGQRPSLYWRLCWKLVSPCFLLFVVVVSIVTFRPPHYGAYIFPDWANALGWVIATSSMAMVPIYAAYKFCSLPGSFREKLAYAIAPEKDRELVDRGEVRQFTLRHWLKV
5-hydroxytryptamine receptor 3A (Homo sapiens), sequence (P46098 whole entry): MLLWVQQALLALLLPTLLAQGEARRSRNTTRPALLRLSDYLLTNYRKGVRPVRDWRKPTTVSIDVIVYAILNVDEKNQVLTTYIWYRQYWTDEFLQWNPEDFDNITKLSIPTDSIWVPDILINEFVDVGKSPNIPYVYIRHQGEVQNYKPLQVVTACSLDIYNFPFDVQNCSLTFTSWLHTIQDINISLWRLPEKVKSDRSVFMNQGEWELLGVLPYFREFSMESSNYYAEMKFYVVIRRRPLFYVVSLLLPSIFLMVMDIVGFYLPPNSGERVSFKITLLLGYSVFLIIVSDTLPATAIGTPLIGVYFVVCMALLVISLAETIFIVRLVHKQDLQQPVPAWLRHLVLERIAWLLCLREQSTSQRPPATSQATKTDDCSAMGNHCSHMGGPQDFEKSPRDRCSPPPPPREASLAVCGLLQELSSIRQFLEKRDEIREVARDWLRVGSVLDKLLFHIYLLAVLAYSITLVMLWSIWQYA

CC(=O)Nc1ccc(-c2cc(-c3ccccc3)nc3cc(C(=O)NCCCn4ccnc4)nn23)cc1
active: inhibition [3] 79.9% | inhibition [5] 75.3% | inhibition [13] 89.3% | inhibition [17] 51.6% | inhibition (Rattus norvegicus) 96.6% | inhibition [29] 90.7% | inhibition (D(3) dopamine receptor [42]) 90%
inactive: inhibition [1] 16.2% | inhibition [2] 32.2% | inhibition [4] -8.97% | inhibition [6] -7.41% | inhibition [7] 14.9% | inhibition [8] 25.4% | inhibition [9] -5.81% | inhibition [11] 0.12% | inhibition [12] 39.3% | inhibition [14] 17.5% | inhibition [15] 6.04% | inhibition [16] 4.27% | inhibition [18] 38.4% | inhibition [19] 18.5% | inhibition [20] 10.8% | inhibition [21] 15.1% | inhibition [22] 30.3% | inhibition [23] 49.3% | inhibition [24] 33.5% | inhibition [25] 21.2% | inhibition [26] -1.48% | inhibition [27] 46.1% | inhibition [28] -7.96% | inhibition [30] 10.8% | inhibition [31] 7.86% | inhibition [33] 17.8% | inhibition [34] 27.9% | inhibition [35] 25.4% | inhibition [36] 49.4% | inhibition [37] 25.9% | inhibition [38] 28.1% | inhibition [40] 16.5% | inhibition [43] 15% | inhibition [47] 48.5% | inhibition [48] 12.9% | inhibition [49] 6.76% | inhibition [50] 22.7%
1.31 µM: Ki [32]
0.198 µM: Ki [46]
3.39 µM: Ki (D(4) dopamine receptor)
6.55 µM: Ki ([39]; read-out: Ki)
0.306 µM: Ki [10]
6.61 µM: Ki ([39]; read-out: pKi (converted))
9.78 µM: Ki [44]
2.1 µM (not active): IC50 [41]
6.51: pKi [10]
> 31 µM (not active): IC50 (Spermine oxidase)
3.6 µM: Ki (D(3) dopamine receptor [45])
